Results reported in ChEMBL document CHEMBL4368915, “Synthesis and Biological Investigation of Phenothiazine-Based Benzhydroxamic Acids as Selective Histone Deacetylase 6 Inhibitors” (J Med Chem, 2019).
Values belong to the compound of their own block, whether it stands above or below them. Activity calls are given as the source filed them. The rule behind the calls is not given here.

Columns and labels:
[1] = (§1) Cytotoxicity against human HepaRG cells assessed as cell viability at 100 uM after 24 hrs by CellTiter blue-reagent based assay relative to control; conditions: HepaRG cells, read-out: Activity
[2] = biological target: Histone deacetylase 4 (Homo sapiens) (UniProt P56524); test: Inhibition of recombinant N-terminal GST/His-tagged human HDAC4 (627 to 1084 residues) expressed in baculovirus expression system at 10 uM using fluorogenic ZMTFAL as substrate incubated for 90 mins by fluorescence assay relative to control
Huh-7 = test: Antiproliferative activity against human HuH7 cells assessed as inhibition of cell proliferation at 10 to 100 uM after 72 hrs by CellTiter blue-reagent based assay; type: functional
MDA-MB-231 [3] = test: Antiproliferative activity against human MDA-MB-231 cells assessed as inhibition of cell proliferation at 10 to 100 uM after 72 hrs by CellTiter blue-reagent based assay; type: functional
T-24 [4] = test: Antiproliferative activity against human T24 cells assessed as inhibition of cell proliferation at 10 to 100 uM after 72 hrs by CellTiter blue-reagent based assay; type: functional
T-24 [5] = test: Synergistic potentiation of Bortezomib-induced antiproliferative activity against human T24 cells assessed as effect on cell index, at 1 uM incubated for 24 hrs by cell impedance based assay; type: functional
Histone deacetylase 1 = Histone deacetylase 1 (Homo sapiens, UniProt Q13547)
[6] = biological target: T1, Protein deacetylase HDAC6 (Homo sapiens, UniProt Q9UBN7)
T1 sequence (Q9UBN7 whole entry): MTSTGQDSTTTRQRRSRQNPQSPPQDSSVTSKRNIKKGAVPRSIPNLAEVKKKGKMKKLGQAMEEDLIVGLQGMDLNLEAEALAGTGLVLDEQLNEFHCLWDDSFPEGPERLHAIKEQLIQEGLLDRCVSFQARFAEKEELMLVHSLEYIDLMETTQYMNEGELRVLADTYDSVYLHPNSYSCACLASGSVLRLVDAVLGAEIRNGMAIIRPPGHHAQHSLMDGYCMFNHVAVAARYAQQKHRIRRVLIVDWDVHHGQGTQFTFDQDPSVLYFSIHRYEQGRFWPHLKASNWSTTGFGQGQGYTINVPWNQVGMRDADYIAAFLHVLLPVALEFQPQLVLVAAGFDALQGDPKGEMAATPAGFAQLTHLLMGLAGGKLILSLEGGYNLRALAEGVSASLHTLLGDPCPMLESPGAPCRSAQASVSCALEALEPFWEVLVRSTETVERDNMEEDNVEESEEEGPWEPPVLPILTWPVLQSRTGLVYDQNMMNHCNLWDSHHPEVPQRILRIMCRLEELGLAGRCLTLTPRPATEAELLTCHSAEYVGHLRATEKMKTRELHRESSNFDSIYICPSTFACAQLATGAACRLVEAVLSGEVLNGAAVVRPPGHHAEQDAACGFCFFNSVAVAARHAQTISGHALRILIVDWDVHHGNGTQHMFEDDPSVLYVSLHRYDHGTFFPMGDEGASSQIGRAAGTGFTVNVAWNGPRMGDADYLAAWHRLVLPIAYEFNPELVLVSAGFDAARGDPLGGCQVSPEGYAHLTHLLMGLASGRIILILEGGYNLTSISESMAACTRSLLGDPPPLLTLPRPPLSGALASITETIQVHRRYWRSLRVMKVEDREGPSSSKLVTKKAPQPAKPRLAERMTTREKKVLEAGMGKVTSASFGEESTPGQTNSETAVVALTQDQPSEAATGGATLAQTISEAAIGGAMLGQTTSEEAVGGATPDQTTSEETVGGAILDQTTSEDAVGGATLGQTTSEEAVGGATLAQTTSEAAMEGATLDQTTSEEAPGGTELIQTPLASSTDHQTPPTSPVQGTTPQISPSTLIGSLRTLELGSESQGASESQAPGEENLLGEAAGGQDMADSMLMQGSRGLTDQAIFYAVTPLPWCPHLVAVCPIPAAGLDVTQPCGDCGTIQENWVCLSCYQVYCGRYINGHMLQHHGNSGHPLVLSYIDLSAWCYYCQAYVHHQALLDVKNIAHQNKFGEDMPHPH

Histone deacetylase 8 = biological target: T2, Histone deacetylase 8 (Homo sapiens, UniProt Q9BY41)
T2 sequence (Q9BY41 whole entry): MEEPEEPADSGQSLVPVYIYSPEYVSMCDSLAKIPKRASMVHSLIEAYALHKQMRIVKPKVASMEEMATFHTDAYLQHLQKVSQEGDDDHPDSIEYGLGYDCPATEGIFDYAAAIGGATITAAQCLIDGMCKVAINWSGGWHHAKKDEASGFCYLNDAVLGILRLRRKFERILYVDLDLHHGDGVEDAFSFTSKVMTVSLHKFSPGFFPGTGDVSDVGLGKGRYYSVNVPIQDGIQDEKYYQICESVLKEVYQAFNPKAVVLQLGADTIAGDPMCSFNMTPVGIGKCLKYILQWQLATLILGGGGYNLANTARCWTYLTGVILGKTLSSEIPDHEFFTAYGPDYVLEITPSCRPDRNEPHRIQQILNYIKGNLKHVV

[7] = Drug level in human liver microsomes treated with 2 uM 4-[(10H-Phenothiazin-10-yl)methyl]-N-hydroxybenzamide assessed as compound formation after 40 mins by LC-MS/MS analysis; type: ADME, Microsome
[8] = Half life in human liver microsomes at 2 uM by LC-MS/MS analysis; type: ADME, Microsome
[9] = Intrinsic clearance in human liver microsomes at 2 uM by LC-MS/MS analysis; type: ADME, Microsome
MDA-MB-231 [10] = test: Induction of apoptosis in human MDA-MB-231 cells at 1 to 10 uM after 48 hrs by propidium iodide-staining based FACS analysis; type: functional, cell-based
T-24 [11] = test: Induction of apoptosis in human T24 cells at 1 to 10 uM after 48 hrs by propidium iodide-staining based FACS analysis; type: functional, cell-based
HL-60 = test: Antiproliferative activity against human HL60 cells after 72 hrs by CellTiter blue-reagent based assay; type: functional, cell-based
MCF7 = test: Antiproliferative activity against human MCF7 cells after 72 hrs by CellTiter blue-reagent based assay; type: functional, cell-based
THP-1 = test: Antiproliferative activity against human THP1 cells after 72 hrs by CellTiter blue-reagent based assay; type: functional, cell-based
[12] = biological target: T3, Histone deacetylase 8 (Homo sapiens) (UniProt Q9BY41); test: Inhibition of recombinant human HDAC8 expressed in baculovirus expression system at 1 uM using fluorogenic Arg-His-Lys(Ac)-Lys(Ac) as substrate incubated for 90 mins by fluorescence assay
T3 sequence (whole entry): T2 sequence (Q9BY41 whole entry)

HepaRG = test: as §1; conditions: heparg, 24 h, 100 µM
CYP1A2 = biological target: T4, CYP1A2 (Homo sapiens, UniProt P05177); test: Inhibition of human CYP1A2 in human liver microsomes at 10 uM relative to control; type: ADME
T4 sequence (P05177 whole entry): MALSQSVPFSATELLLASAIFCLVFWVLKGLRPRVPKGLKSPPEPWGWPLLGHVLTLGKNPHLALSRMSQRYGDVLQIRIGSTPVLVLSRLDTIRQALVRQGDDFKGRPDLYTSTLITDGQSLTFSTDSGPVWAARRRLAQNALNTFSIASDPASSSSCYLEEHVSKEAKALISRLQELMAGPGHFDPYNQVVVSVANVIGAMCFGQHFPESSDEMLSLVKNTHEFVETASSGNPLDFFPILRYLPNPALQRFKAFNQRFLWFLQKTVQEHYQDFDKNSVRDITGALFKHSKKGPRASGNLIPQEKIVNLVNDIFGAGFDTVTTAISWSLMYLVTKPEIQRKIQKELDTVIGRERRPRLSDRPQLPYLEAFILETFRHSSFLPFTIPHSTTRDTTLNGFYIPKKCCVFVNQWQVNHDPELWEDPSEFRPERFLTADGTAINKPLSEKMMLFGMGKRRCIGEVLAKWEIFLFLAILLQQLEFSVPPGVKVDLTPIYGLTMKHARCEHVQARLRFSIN

CYP2C9 = CYP2C9 (Homo sapiens, UniProt P11712); test: Inhibition of human CYP2C9 in human liver microsomes at 10 uM relative to control; type: ADME
CYP2C19 = CYP2C19 (Homo sapiens, UniProt P33261); test: Inhibition of human CYP2C19 in human liver microsomes at 10 uM relative to control; type: ADME
CYP2D6 = CYP2D6 (Homo sapiens, UniProt P10635); test: Inhibition of human CYP2D6 in human liver microsomes at 10 uM relative to control; type: ADME
CYP3A4 = CYP3A4 (Homo sapiens, UniProt P08684); test: Inhibition of human CYP3A4 in human liver microsomes at 10 uM relative to control; type: ADME
[13] = Stability in human liver microsomes assessed as compound remaining at 2 uM after 40 mins by LC-MS/MS analysis; type: ADME, Microsome; conditions: read-out: Stability
[14] = Drug metabolism in human liver microsomes assessed as N-Hydroxy-4-[(5-oxido-10H-Phenothiazin-10-yl)methyl]-benzamide formation at 2 uM after 40 mins by LC-MS/MS analysis; type: ADME, Microsome
[15] = Drug metabolism in human liver microsomes assessed as 4-[(5,5-Dioxido-10H-phenothiazin-10-yl)methyl]-N-hydroxybenzamide formation at 2 uM after 40 mins by LC-MS/MS analysis; type: ADME, Microsome
[16] = Stability in human liver microsomes assessed as compound remaining at 2 uM measured up to 20 mins by LC-MS/MS analysis; type: ADME, Microsome

Histone deacetylase 4 (Homo sapiens), sequence (P56524 whole entry, the tested form may be a part): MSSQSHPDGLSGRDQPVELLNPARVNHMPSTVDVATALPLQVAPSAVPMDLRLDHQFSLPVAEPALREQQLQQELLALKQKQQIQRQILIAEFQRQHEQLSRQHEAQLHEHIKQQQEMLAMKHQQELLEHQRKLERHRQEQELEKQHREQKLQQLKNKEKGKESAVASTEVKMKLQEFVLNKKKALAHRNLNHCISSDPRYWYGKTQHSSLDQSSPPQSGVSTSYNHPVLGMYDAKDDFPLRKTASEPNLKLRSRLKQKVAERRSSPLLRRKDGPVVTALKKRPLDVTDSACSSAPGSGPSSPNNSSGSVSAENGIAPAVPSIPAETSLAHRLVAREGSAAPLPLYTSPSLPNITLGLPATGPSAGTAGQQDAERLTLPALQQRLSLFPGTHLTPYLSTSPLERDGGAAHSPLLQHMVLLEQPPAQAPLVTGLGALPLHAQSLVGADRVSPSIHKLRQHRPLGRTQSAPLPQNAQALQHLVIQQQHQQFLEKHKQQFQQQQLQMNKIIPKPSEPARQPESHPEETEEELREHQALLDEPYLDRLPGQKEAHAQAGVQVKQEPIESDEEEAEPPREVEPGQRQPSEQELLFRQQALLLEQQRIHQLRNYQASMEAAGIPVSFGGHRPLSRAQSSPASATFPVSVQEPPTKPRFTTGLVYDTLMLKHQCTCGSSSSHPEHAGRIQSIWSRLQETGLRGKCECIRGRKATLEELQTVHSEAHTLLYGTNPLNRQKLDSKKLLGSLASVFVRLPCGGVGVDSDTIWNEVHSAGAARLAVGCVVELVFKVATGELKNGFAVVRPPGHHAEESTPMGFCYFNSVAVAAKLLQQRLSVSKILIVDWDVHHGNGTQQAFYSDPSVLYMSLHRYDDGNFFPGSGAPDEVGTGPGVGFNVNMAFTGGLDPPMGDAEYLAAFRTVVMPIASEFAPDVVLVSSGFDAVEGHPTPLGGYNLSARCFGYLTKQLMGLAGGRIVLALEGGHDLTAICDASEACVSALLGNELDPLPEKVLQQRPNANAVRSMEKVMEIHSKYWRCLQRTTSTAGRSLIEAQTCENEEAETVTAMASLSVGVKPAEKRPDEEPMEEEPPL
Histone deacetylase 1, sequence (Q13547 whole entry): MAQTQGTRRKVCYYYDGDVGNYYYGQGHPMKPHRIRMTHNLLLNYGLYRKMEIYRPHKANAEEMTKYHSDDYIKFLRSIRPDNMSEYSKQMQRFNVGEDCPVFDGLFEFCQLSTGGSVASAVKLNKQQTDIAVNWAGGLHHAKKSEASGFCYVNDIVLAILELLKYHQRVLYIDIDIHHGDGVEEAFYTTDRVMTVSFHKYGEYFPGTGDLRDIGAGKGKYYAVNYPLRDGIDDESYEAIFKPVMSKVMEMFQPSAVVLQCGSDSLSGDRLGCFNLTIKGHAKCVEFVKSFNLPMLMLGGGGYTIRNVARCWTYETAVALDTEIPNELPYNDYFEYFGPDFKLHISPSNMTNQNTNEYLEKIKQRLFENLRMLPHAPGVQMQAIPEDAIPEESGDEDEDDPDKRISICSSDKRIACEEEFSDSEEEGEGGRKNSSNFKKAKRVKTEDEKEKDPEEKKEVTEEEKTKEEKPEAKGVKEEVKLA
CYP2C9, sequence (P11712 whole entry): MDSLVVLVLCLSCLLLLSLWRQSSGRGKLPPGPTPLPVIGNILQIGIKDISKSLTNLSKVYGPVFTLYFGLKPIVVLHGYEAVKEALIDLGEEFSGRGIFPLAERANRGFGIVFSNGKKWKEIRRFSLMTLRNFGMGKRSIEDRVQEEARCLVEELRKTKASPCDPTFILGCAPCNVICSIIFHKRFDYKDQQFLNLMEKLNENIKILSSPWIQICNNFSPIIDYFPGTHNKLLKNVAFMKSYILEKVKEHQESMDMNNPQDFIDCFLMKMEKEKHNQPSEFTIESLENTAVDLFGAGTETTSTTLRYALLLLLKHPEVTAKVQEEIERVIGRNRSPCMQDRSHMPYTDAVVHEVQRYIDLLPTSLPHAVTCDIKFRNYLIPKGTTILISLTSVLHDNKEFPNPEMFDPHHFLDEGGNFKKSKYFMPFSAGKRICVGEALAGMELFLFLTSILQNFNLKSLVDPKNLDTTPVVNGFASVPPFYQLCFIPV
CYP2D6, sequence (P10635 whole entry): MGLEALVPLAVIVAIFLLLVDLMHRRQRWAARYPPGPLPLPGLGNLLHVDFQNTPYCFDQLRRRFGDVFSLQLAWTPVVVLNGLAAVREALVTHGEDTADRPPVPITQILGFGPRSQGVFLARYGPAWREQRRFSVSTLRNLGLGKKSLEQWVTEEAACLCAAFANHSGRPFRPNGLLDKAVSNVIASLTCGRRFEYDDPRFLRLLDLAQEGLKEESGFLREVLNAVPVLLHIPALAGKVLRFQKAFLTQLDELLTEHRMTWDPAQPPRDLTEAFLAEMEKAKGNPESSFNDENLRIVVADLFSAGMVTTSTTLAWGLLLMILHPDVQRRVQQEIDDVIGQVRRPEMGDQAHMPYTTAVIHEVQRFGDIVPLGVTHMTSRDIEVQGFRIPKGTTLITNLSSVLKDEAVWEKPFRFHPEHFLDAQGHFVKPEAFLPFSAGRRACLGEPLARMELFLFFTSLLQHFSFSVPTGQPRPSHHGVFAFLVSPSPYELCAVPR
CYP2C19, sequence (P33261 whole entry): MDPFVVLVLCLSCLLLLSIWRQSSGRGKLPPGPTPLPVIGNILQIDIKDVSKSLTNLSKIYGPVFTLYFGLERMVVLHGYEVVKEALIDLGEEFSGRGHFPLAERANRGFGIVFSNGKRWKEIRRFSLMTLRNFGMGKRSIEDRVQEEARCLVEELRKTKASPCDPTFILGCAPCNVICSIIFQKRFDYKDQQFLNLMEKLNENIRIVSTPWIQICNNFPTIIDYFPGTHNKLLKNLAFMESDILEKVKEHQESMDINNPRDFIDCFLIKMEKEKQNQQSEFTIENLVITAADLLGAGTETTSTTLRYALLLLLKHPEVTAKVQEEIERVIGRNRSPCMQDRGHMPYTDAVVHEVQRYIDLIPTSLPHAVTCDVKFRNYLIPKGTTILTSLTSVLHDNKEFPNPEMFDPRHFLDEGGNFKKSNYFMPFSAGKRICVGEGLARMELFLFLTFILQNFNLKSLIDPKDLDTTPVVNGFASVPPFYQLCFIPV
CYP3A4, sequence (P08684 whole entry): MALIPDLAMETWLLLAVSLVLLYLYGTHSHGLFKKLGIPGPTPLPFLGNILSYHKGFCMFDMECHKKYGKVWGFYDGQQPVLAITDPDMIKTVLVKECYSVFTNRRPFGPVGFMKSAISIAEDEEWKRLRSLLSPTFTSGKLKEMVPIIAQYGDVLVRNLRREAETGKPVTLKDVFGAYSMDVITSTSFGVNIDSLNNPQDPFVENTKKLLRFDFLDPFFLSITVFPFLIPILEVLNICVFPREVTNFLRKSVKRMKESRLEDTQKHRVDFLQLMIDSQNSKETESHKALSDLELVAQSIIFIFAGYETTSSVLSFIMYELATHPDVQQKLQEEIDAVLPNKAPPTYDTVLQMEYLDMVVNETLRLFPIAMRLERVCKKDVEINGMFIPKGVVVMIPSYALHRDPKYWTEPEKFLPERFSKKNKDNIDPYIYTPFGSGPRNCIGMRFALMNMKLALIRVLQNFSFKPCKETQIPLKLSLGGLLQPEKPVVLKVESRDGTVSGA

SMILES: O=C(NO)c1ccc(CN2c3ccncc3Sc3ncccc32)cc1
viability at 24 h, 100 µM [1]: 80%
inhibition [2]: < 20%
inhibition (Huh-7): Active
inhibition (MDA-MB-231 [3]): Active
inhibition (T-24 [4]): Active
Activity (T-24 [5]): inactive
IC50 (Histone deacetylase 1): 3340 nM
IC50 [6]: 12 nM
IC50 (Histone deacetylase 8): 2000 nM

SMILES: Cc1nc2c(s1)Sc1ccccc1N2Cc1ccc(C(=O)NO)cc1
IC50 [6]: 37 nM

SMILES: O=C(CCCCCCC(=O)Nc1ccc([C@H]2O[C@@H](CSc3nc(-c4ccccc4)c(-c4ccccc4)o3)C[C@@H](c3ccc(CO)cc3)O2)cc1)NO [TUBACIN]
IC50 (Histone deacetylase 1): 1010 nM

SMILES: O=C(NO)c1ccc(CN2c3cccnc3Sc3cccnc32)cc1
IC50 [6]: 14 nM

SMILES: Cn1c(=O)c2c(ncn2C)n(C)c1=O [CAFFEINE]
t1/2 [8]: 6.22 h
CLH [9]: 4 µL/min/mg

SMILES: O=C(CCCCCCC(=O)Nc1ccccc1)NO
Activity (MDA-MB-231 [10]): Active
Activity (T-24 [11]): Active
Activity (HL-60): Active
Activity (MCF7): Active
Activity (THP-1): Active

SMILES: O=C(NO)c1ccc(CN2N=C(Cl)C=C3Sc4ccccc4N=C32)cc1
IC50 [6]: 115 nM

SMILES: O=C(NO)c1ccc(CN2c3ccccc3Sc3cccc(Cl)c32)cc1
IC50 (Histone deacetylase 1): 5760 nM
IC50 [6]: 16 nM

SMILES: O=C(NO)c1ccc(CN2c3ccccc3Sc3ccc(Cl)cc32)cc1
IC50 (Histone deacetylase 1): 2950 nM
IC50 [6]: 12 nM

SMILES: O=C(NO)c1ccc(CN2c3ccncc3Sc3ccncc32)cc1
IC50 [6]: 9 nM

SMILES: CCSc1ccc2c(c1)N(Cc1ccc(C(=O)NO)cc1)c1ccccc1S2
IC50 (Histone deacetylase 1): 7200 nM
IC50 [6]: 31 nM

SMILES: O=C(NO)c1ccc(CN2c3ccccc3Sc3ccccc32)cc1
Activity (HepaRG): Non-Toxic
inhibition [2]: < 20%
t1/2 [8]: 1.95 h
CLH [9]: 14 µL/min/mg
inhibition at 10 µM (CYP1A2): 20%
inhibition at 10 µM (CYP2C9): 24.4%
inhibition at 10 µM (CYP2C19): 36.4%
inhibition at 10 µM (CYP2D6): 45.4%
inhibition at 10 µM (CYP3A4): 24.3%
Activity (T-24 [5]): inactive
remaining at 40 min, 2 µM [13]: 77%
Drug metabolism [14]: Metabolite_Detected
Drug metabolism [15]: Metabolite_Detected
IC50 (Histone deacetylase 1): 5080 nM
IC50 (Histone deacetylase 8): 1480 nM

SMILES: COc1ccc2c(c1)N(Cc1ccc(C(=O)NO)cc1)c1ccccc1S2
IC50 (Histone deacetylase 1): 2070 nM
IC50 [6]: 10 nM

SMILES: O=C(NO)c1ccc(CN2N=CC=C3Sc4ccccc4N=C32)cc1
IC50 [6]: 19 nM

SMILES: O=C(NO)c1ccc(CN2c3ccccc3Sc3cccnc32)cc1
Activity (HepaRG): Non-Toxic
inhibition [2]: < 20%
t1/2 [8]: 2.47 h
CLH [9]: 11 µL/min/mg
inhibition at 10 µM (CYP1A2): 15.2%
inhibition at 10 µM (CYP2C9): 3.4%
inhibition at 10 µM (CYP2C19): 27.7%
inhibition at 10 µM (CYP2D6): 12%
inhibition (Huh-7): Active
inhibition (MDA-MB-231 [3]): Active
inhibition (T-24 [4]): Active
Activity (T-24 [5]): inactive
Stability [16]: Stable
IC50 (Histone deacetylase 1): 2690 nM
IC50 (Histone deacetylase 8): 3100 nM

SMILES: O=C(NO)c1ccc(CN2c3ccccc3Sc3ccc(C(F)(F)F)cc32)cc1
IC50 (Histone deacetylase 1): 7490 nM
IC50 [6]: 25 nM

Continued, values first:

Drug uptake [7]: Active
IC50 (Histone deacetylase 1): 6810 nM
IC50 [6]: 77 nM
SMILES: O=C(NO)c1ccc(CN2c3ccccc3[S+]([O-])c3ccccc32)cc1

Drug uptake [7]: Active
IC50 (Histone deacetylase 1): 3990 nM
SMILES: O=C(NO)c1ccc(CN2c3ccccc3S(=O)(=O)c3ccccc32)cc1

IC50 [6]: 18 nM
SMILES: O=C(NO)c1ccc(CN2c3ccccc3Sc3cc(Cl)nnc32)cc1

IC50 [6]: 2670 nM
SMILES: O=C(NO)c1ccc(N2c3ccccc3Sc3ccccc32)cc1

inhibition [12]: 66%
IC50 (Histone deacetylase 1): 980 nM
IC50 [6]: 32 nM
SMILES: CN1CCC2=C(C1)N(Cc1ccc(C(=O)NO)cc1)c1ccccc1S2

IC50 [6]: 7 nM
SMILES: O=C(NO)c1ccc(CN2c3ccccc3Sc3ccncc32)cc1

IC50 [6]: 11 nM
SMILES: O=C(NO)c1ccc(CN2c3ccccc3Sc3ccnnc32)cc1

IC50 [6]: 136 nM
SMILES: O=C(NO)c1ccc(CCN2c3ccccc3Sc3ccccc32)cc1

IC50 [6]: 17 nM
SMILES: O=C(NO)c1ccc(CN2c3ccccc3Sc3nccnc32)cc1
